The record followed here is patent publication EP1952812A1, “Drug for treating thalessemia, falciform anemia and all other forms of anemia treatable therewith” (Universita' Degli Studi di Ferrara, priority 2007, dated 2008).

Data set [1] relates to gamma-globin mRNA. The data set can be described thus: gamma-globin mRNA production by quantitative RT-PCR in human erythroid precursors isolated from peripheral blood (two-step Fibach culture). The class given is cell-based. To be noted: for gamma-globulin mRNA: ratio of mRNA content in UVA-treated cells to that of UVA-untreated cells, cells treated for 6 days. The source says:
To verify if treatment with 8-meethoxypsoralen and trimethylangelicin photoactivated with UVA light was able to stimulate mRNA production for gamma-globin in human erythroid precursors isolated from peripheral blood, the method used was that described by Fibach et al. (Fibach E. Hemoglobin, 22: 445-458, 1998; Fibach E, Burke KP, Schechter AN, Noguchi CT & Rodgers GP. Blood, 81: 1630-1635, 1993). This method comprises two steps: the cells isolated from peripheral blood of a healthy subject or affected with a hemopoietic pathology, such as falciform anemia or beta-thalessemia, are seeded in culture medium to which 10% of conditioned medium deriving from the bladder carcinoma cell line 5637 is added. The second step consists of cultivating the isolated cells in a suitable culture medium to which erythropoietin hormone, 30% of bovine fetal serum, 2-mercapto-ethanol, albumin, glutamine and desametasone are added to enable proliferation and maturing of erythroid stem cells. In this step the cells can be treated with potential HbF inducers.
The gamma-globin mRNA production level is much higher than that encountered using hydroxyurea as inducer (Fibach E. Hemoglobin, 22: 445-458, 1998; Fibach E, Burke KP, Schechter AN, Noguchi CT & Rodgers GP. Blood, 81: 1630-1635, 1993).

Data set [2] has as its system K562 human cell line. Briefly: Erythroid differentiation of K562 cells (benzidine positivity), with or without UVA photoactivation. Type of data set: cell-based. To be noted: percentage of K562 cells positive to benzidine. The method, then:
The evaluation of the biological activity of the treatment with psoralens photoactivated with UVA light was conducted by examining the capacity of these molecules to modulate the gamma-globin gene expression in the K562 human cell line, which is able to differentiate in the erythroid sense by expressing the gamma-globin genes if subjected to treatment with biological response modifiers suitable for the purpose (Lampronti I., Bianchi N Borgatti M., Fibach E.,Prus E.,Gambari R. Eur J Haematology 71 189-195 2003, Bianchi N, Ongaro F, Chiarabelli C, Gualandi L, Mischiati C, Bergamini P, Gambari R. Biochem Pharmacol, 60:31-40, 2000;Bianchi N, Osti F, Rutigliano C, Ginanni Corradini F, Borsetti E, Tomassetti M, Mischiati C, Feriotto G and Gambari R, British Journal of Haematology, 104:258-263, 1999).
The differentiation level was evaluated by analyzing the cell positivity to benzidine (Lampronti I., Bianchi N., Borgatti M., Fibach E., Prus E., Gambari R. Eur J Haematology 71 189-195 2003,).
The gamma-globin coding gene expression was evaluated by quantitative RT-PCR (reverse transcriptase PCR) (Lampronti I., Bianchi N Borgatti M., Fibach E.,Prus E.,Gambari R. Eur J Haematology. 71 189-195 2003) Some of the data obtained are reported in Table 1. As can be easily noted, treatment with different furocoumarin derivatives photoactivated with UVA light are able to induce an increase in the percentage of cells positive to benzidine (60-85% of the treated cells, compared with 5-17% of the K562 control cells treated with furocoumarin derivatives in the absence of UVA light). […] In the control not treated with furocoumarin derivatives, erythrolid differentiation is low (4-6%) both in the absence and in the presence of UVA light.

[3] abbreviates: Homo sapiens, light or radiation study, 144 h, read-out: gamma-globin mRNA.

As to `COc1c2occc2cc2ccc(=O)oc12` [Compound 8-MOP, 8-methoxypsoralen, reference compound], in data set [1] (setting [3]), the fold induction at 0.25 µM amounted to 2.76 and the fold induction at 1 µM stood at 18.5. In data set [2] (concentration 0.25 µM), the “Erythroid differentiation with UVA (%)” value is given as 65% and the “Erythroid differentiation without UVA (%)” value is reported as 17%.
Consider `O=c1ccc2ccc3occc3c2o1` [angelicin], for which, in data set [2] (concentration 0.50 µM), the “Erythroid differentiation with UVA (%)” value is listed as 60% and the “Erythroid differentiation without UVA (%)” value was 6%.
Regarding `Cc1cc(=O)oc2c1cc(C)c1occ(C)c12` [trimethylangelicin], in data set [1] (concentration 0.10 µM), the “gamma-globulin mRNA” value was 9.56. For the same molecule, the “gamma-globulin mRNA” value in data set [1] (concentration 0.50 µM) is listed as 12.86. In addition, in data set [2] (concentration 0.50 µM), the “Erythroid differentiation with UVA (%)” value is listed as 85% and the “Erythroid differentiation without UVA (%)” value was 5%.
